{"source": "patent US20130315920A1", "about": "“Cross Protective Epitopes of Aspergillus Fumigatus and Candida Albicans” (Cell Medica Limited, priority 2010, published 2013)", "key": {"[1]": {"system": "T-cell lines from PBMC of healthy donors", "experiment": "IFN-γ ELISA of T-cell lines stimulated with recombinant A. fumigatus proteins", "assay_type": "cell-based, human", "settings": "5 μg/ml protein", "text": "(§1) As the identification of potential protective fungal antigens is rather intricate due to the extensiveness of fungal genomes, we analyzed 6 different A. fumigatus recombinant proteins based on their previously reported immunogeneic reactivity in mice and humans^7,10. […] By contrast, GPI-anchored extracellular cell wall glucanase Crf1 and secreted protein peptidase induced high IFN-γ in 6 of 7 and 5 of 10 tested donors, respectively. The response was mediated by CD4^+ TH1 cells, as MHC class II blocking antibody nearly abrogated IFN-γ release (data not shown). Due to the broad response and the sequence similarity to the C. albicans orthologue Crh1, we focused in subsequent experiments on the protein Crf1. By epitope mapping of 7 healthy individuals with different MHC class II alleles, we identified 10 potential candidate epitopes (Table 1). Based on the results obtained by epitope mapping, the probability of antigen presentation by certain MHC class II alleles assessed by epitope prediction^11, previously reported immunogeneic reactivity^12 and sequence similarity to the C. albicans homologue Crh1, we then generated CD4^+ TH1 T-cell clones specific for the peptides p1, p22, p27, p41, p48, p59, p69 and p84 (FIG. 1a and Table 1).\nA. fumigatus superoxide dismutase^34, catalase^35, peptidase^36 and 1,3-beta-glucanosyl-transferase Gel1^30 were produced in the yeast Pichia pastoris as described^37. Extracellular cell wall glucanase Crf1^37 (cDNA provided by Utz Reichard) and the major allergen and cytotoxin AspF1^10 were expressed with FLAG-Tags in the human cell line phoenix GALV^38.\n(§2) For analysis of recombinant proteins and epitope mapping, T-cell lines were generated by incubation of 1×10^7 PBMC per well in 6-well cell culture plates with 5 μg/ml protein or peptide for 7d in the presence of 5 U/ml IL-2 (Proleukin, Chiron). Antigen specificity was analyzed by IFN-γ ELISA^42 after restimulation with autologous monocytes incubated overnight with 5 μg/ml protein in a responder to stimulator (R:S) ratio of 5:1. Epitope mapping was performed by IFN-γ ELISPOT^39 after stimulation with peptide-pulsed autologous DC at a R:S ratio of 10:1."}, "[2]": {"system": "DC transfected with Crf1 mRNA", "experiment": "Peptide-specific T-cell clones stimulated with Crf1 mRNA-transfected DC (IFN-γ)", "assay_type": "cell-based, human", "settings": "for Response of peptide-specific CD4+ T-cell clones to endogenously processed antigen: all donors", "experimental": "(§3) T-cell cloning was performed as described in below. T-cell clones were stimulated either with mature peptide-pulsed (2.5 μg/ml) or Crf1 mRNA-transfected DC, immature DC incubated for 24 h with A. fumigatus cell extract (20 μg/ml) in the presence of cytokine maturation cocktail or immature DC incubated for 24 h with inactivated A. fumigatus or C. albicans fungus (multiplicity of infection 3) in a R:S ratio of 5:1.\nFor T-cell cloning 6×10^7 PBMC were stimulated overnight with 5 μg/ml peptide and 1 μg/ml CD40 antibody (HB14, Miltenyi Biotec). Cells were labelled with anti-CD154^+ microbeads and isolated by magnetic cell separation according to the manufacturers' instructions (Miltenyi Biotec). Selected cells were cultured with γ-irradiated autologous PBMC (ratio 1:50) and cytokines were supplemented as described above. On d14, T-cell clones were generated by limiting dilution in 96-well plates and expanded using the rapid expansion protocol previously described^50.\nA. fumigatus Crf1 cDNA was cloned into the pGEM4Z vector (provided by Kris Thielemans) and in vitro transcribed using mMESSAGE mMACHINE T Ultra Kit (Ambion) according to the manufacturers' instructions. Crf1 was fused to the N-terminal domain of the invariant chain to enhance antigen presentation by MHC class II^51,52. Maturated DC were electroporated with 15 μg mRNA at 300V and 150 μF using the EQUIBIO EasyjecT Plus® apparatus (EQUIBIO) in serum-free medium (OptiMEM, Gibco)^41."}, "[3]": {"system": "A. flavus, A. nidulans, A. niger, A. terreus, C. glabrata and C. krusei", "experiment": "Cross-reactivity of T-cell clones to other Aspergillus and Candida species", "assay_type": "cell-based", "settings": "data not shown", "text": "We then analyzed if our T-cell clones might cross-react to other clinically relevant Aspergillus and Candida species such as A. flavus, A. nidulans, A. niger, A. terreus, C. glabrata and C. krusei because they also express proteins with some sequence similarity to A. fumigatus Crf1. […] Thus, p41-specific TH1 cells represent a core repertoire in antifungal immune responses being reactive to A. fumigatus but also to C. albicans, the second most important pathogenic fungus in HSCT patients.\nFungal strains A. fumigatus D141, A. nidulans FGSCA4, C. albicans SC5314 and clinical isolates A. fumigatus, A. terreus, A. flavus, A. niger, C. albicans, C. glabrata and C. krusei were provided by Sven Krappmann, Joachim Morschhäuser and Reno Frei."}, "[4]": {"system": "T-cell lines of 7 donors with different MHC class II alleles", "experiment": "Epitope mapping of Crf1 peptides with IFN-γ ELISPOT", "assay_type": "cell-based, human", "settings": "7 donors tested, peptide-pulsed autologous DC", "text": "as §1\nA peptide library covering the complete Crf1 sequence consisting of 94 15-mer peptides overlapping by […] (aa) was divided into sub-pools of 10 peptides and 94 single peptides (p1-p94) (PANATecs). 3 11-mer peptides of p40/41 overlapping by 2aa ([…], […], HTYTIDWTKDA) were obtained from JPT Peptide Technologies.\nas §2"}, "C. albicans": {"system": "C. albicans", "experiment": "Peptide-specific T-cell clones stimulated with inactivated C. albicans yeast", "assay_type": "cell-based, Candida albicans", "settings": "inactivated C. albicans yeast, established strain", "text": "A. fumigatus Crf1 p41-specific T-cell clones are cross-reactive to C. albicans and can be activated by different clinical isolates of both fungi. (a) All A. fumigatus Crf1 p41-specific T-cell clones from different donors respond to stimulation with inactivated C. albicans yeast. IFN-γ values are given after subtraction of the negative control. Shown is 1 clone per antigen and donor (representative experiments, n≧3). (b) A. fumigatus Crf1 p41-specific T-cell clones respond to different inactivated clinical isolates of germinating A. fumigatus conidia and C. albicans yeast.\nas §3\n(§4) Fungal extracts were generated as described^48 and protein content was measured by Bradford protein assay (Perbio Science) according to the manufacturers' instructions. For inactivated fungus Aspergillus conidia were inoculated in growth medium^49 and cultured for 0, 4, 8 or 12 h. Candida species were cultured for 24 h. Fungi were inactivated with 70% ethanol. Ethanol-inactivated fungi and extracts were validated for sterility by subculturing on Sabouraud dextrose agar."}, "[5]": {"system": "A. fumigatus cell extract", "experiment": "Peptide-specific T-cell clones stimulated with DC incubated with A. fumigatus cell extract (IFN-γ)", "assay_type": "cell-based, Aspergillus fumigatus", "settings": "extract 20 μg/ml, DC incubated 24 h", "experimental": "as §3, §4"}}}
{"molecule": "catalase", "values": [{"measurement": "IFN-γ response", "setting": "[1]", "value": "only weak interferon-γ (IFN-γ) responses in some donors"}]}
{"molecule": "MYFKYTAAALAAVLP (peptide epitope of A. fumigatus Crf1) [p1, Crf1 aa 1-15]", "values": [{"measurement": "Response of peptide-specific CD4+ T-cell clones to endogenously processed antigen", "setting": "[2]", "value": "only some of the p1-, p22-, p27- and p59-specific CD4^+ T-cells clones responded to endogenously processed antigen"}, {"measurement": "Number of T-cell clones reacting to Crf1 mRNA-transfected DC/number of peptide-specific T-cell clones", "setting": "[2]; donor 5", "value": "3/3"}, {"measurement": "Number of T-cell clones reacting to Crf1 mRNA-transfected DC/number of peptide-specific T-cell clones", "setting": "[2]; donor 6", "value": "1/5"}, {"measurement": "Number of T-cell clones reacting to Crf1 mRNA-transfected DC/number of peptide-specific T-cell clones", "setting": "[2]; donor 7", "value": "0/6"}, {"measurement": "Number of T-cell clones reacting to Crf1 mRNA-transfected DC/number of peptide-specific T-cell clones", "setting": "[2]; donor 12", "value": "10/10"}, {"measurement": "Cross-reactivity to other Aspergillus and Candida species", "setting": "[3]", "value": "weak cross-reactivity to A. flavus, A. nidulans and A. terreus"}, {"measurement": "No. of responders", "setting": "[4]", "value": 4}, {"measurement": "Cross-reactivity of peptide-specific T-cell clones to C. albicans", "setting": "C. albicans", "value": "none of the Crf1 p1-, Cal p27- and Cal p59-specific T-cell clones could be activated"}, {"measurement": "Response of peptide-specific T-cell clones to A. fumigatus extract", "setting": "[5]", "value": "most Crf1 p1-specific T-cell clones of 2 of 4 donors responded to A. fumigatus extract"}]}
{"molecule": "SAGPYTMYVKSVRIE (peptide epitope of A. fumigatus Crf1) [p58, Crf1 aa 229-243]", "values": [{"measurement": "No. of responders", "setting": "[4]", "value": 3}]}
{"molecule": "SSSSVTSSTTSTASS (peptide epitope of A. fumigatus Crf1) [p69, Crf1 aa 273-287]", "values": [{"measurement": "Response of peptide-specific CD4+ T-cell clones to endogenously processed antigen", "setting": "[2]", "value": "None of the CD4^+ T-cell clones specific for the peptides p48, p69 and p84 responded to Crf1 mRNA-transfected DC"}, {"measurement": "Number of T-cell clones reacting to Crf1 mRNA-transfected DC/number of peptide-specific T-cell clones", "setting": "[2]; donor 1", "value": "0/3"}, {"measurement": "Number of T-cell clones reacting to Crf1 mRNA-transfected DC/number of peptide-specific T-cell clones", "setting": "[2]; donor 4", "value": "0/2"}, {"measurement": "No. of responders", "setting": "[4]", "value": 3}]}
{"molecule": "AKGGTRFPQTPMRLR (peptide epitope of A. fumigatus Crf1) [p48, Crf1 aa 189-203]", "values": [{"measurement": "Response of peptide-specific CD4+ T-cell clones to endogenously processed antigen", "setting": "[2]", "value": "None of the CD4^+ T-cell clones specific for the peptides p48, p69 and p84 responded to Crf1 mRNA-transfected DC"}, {"measurement": "Number of T-cell clones reacting to Crf1 mRNA-transfected DC/number of peptide-specific T-cell clones", "setting": "[2]; donor 3", "value": "0/7"}, {"measurement": "Number of T-cell clones reacting to Crf1 mRNA-transfected DC/number of peptide-specific T-cell clones", "setting": "[2]; donor 4", "value": "0/4"}, {"measurement": "Number of T-cell clones reacting to Crf1 mRNA-transfected DC/number of peptide-specific T-cell clones", "setting": "[2]; donor 11", "value": "0/5"}, {"measurement": "No. of responders", "setting": "[4]", "value": 3}]}
{"molecule": "YTMYVKSVRIENANP (11-mer peptide of p40/41) [p59, Crf1 aa 233-247]", "values": [{"measurement": "Response of peptide-specific CD4+ T-cell clones to endogenously processed antigen", "setting": "[2]", "value": "only some of the p1-, p22-, p27- and p59-specific CD4^+ T-cells clones responded to endogenously processed antigen"}, {"measurement": "Number of T-cell clones reacting to Crf1 mRNA-transfected DC/number of peptide-specific T-cell clones", "setting": "[2]; donor 5", "value": "1/3"}, {"measurement": "Number of T-cell clones reacting to Crf1 mRNA-transfected DC/number of peptide-specific T-cell clones", "setting": "[2]; donor 6", "value": "2/2"}, {"measurement": "Number of T-cell clones reacting to Crf1 mRNA-transfected DC/number of peptide-specific T-cell clones", "setting": "[2]; donor 12", "value": "1/7"}, {"measurement": "Cross-reactivity to other Aspergillus and Candida species", "setting": "[3]", "value": "none of the Crf1 p27-, p41- and p59-specific T-cell clones showed any cross-reactivity to these fungi"}, {"measurement": "No. of responders", "setting": "[4]", "value": 5}, {"measurement": "Cross-reactivity of peptide-specific T-cell clones to C. albicans", "setting": "C. albicans", "value": "none of the Crf1 p1-, Cal p27- and Cal p59-specific T-cell clones could be activated"}, {"measurement": "Response of peptide-specific T-cell clones to A. fumigatus extract", "setting": "[5]", "value": "only very few T-cell clones specific for Cal p27 and Crf1 p59"}]}
{"molecule": "TRFPQTPMRLRLGSW (peptide epitope of A. fumigatus Crf1) [p49, Crf1 aa 193-207]", "values": [{"measurement": "No. of responders", "setting": "[4]", "value": 4}]}
{"molecule": "PPNKGLAASTYTADF (peptide epitope of A. fumigatus Crf1) [p9, Crf1 aa 33-47]", "values": [{"measurement": "No. of responders", "setting": "[4]", "value": 3}]}
{"molecule": "TGSSTSAGASATPEL (peptide epitope of A. fumigatus Crf1) [p89, Crf1 aa 353-367]", "values": [{"measurement": "No. of responders", "setting": "[4]", "value": 4}]}
{"molecule": "superoxide dismutase", "values": [{"measurement": "IFN-γ response", "setting": "[1]", "value": "only weak interferon-γ (IFN-γ) responses in some donors"}]}
{"molecule": "GSSNTGSGSGSGSGS (peptide epitope of A. fumigatus Crf1) [p84, Crf1 aa 333-347]", "values": [{"measurement": "Response of peptide-specific CD4+ T-cell clones to endogenously processed antigen", "setting": "[2]", "value": "None of the CD4^+ T-cell clones specific for the peptides p48, p69 and p84 responded to Crf1 mRNA-transfected DC"}, {"measurement": "Number of T-cell clones reacting to Crf1 mRNA-transfected DC/number of peptide-specific T-cell clones", "setting": "[2]; donor 4", "value": "0/4"}, {"measurement": "Number of T-cell clones reacting to Crf1 mRNA-transfected DC/number of peptide-specific T-cell clones", "setting": "[2]; donor 11", "value": "0/5"}, {"measurement": "No. of responders", "setting": "[4]", "value": 5}]}
{"molecule": "AspF1: recombinant A. fumigatus major allergen and cytotoxin AspF1 (His136Leu) (protein) ATWTCINQQLNPKTNKWEDKRLLYSQAKAESNSHHAPLSDGKTGSSYPHWFTNGYDGNGKLIKGRTPIKFGKADCDRPPKHSQNGMGKDDHYLLEFPTFPDGHDYKFDSKKPKEDPGPARVIYTYPNKVFCGIVALQRGNQGDLRLCSH", "values": [{"measurement": "IFN-γ response", "setting": "[1]", "value": "only weak interferon-γ (IFN-γ) responses in some donors"}]}
